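Briefly, cells in 96-well plates were exposed to five compound concentrations for 48 h, and endpoints were estimated by linear interpolation. At the GI50, growth is halved. TGI denotes the concentration required for complete inhibition of growth.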
Tests used:
Experiment in all cases: growth of human tumour cells (NCI), 48 h
A549 NSCLC = test system: A549 NSCLC
CCRF-CEM leukemia = test system: CCRF-CEM leukemia
HCT-116 colon = test system: HCT-116 colon
HOP-62 NSCLC = test system: HOP-62 NSCLC
HT29 colon = test system: HT29 colon
M14 melanoma = test system: M14 melanoma
NCI-H522 lung = test system: NCI-H522 lung
RXF 393 renal = test system: RXF 393 renal
SNB-75 CNS = test system: SNB-75 CNS
UO-31 renal = test system: UO-31 renal

Row | Structure (SMILES) | GI50 (A549 NSCLC) [µM] | TGI (A549 NSCLC) [µM] | GI50 (CCRF-CEM leukemia) [µM] | TGI (CCRF-CEM leukemia) [µM] | GI50 (HCT-116 colon) [µM] | TGI (HCT-116 colon) [µM] | GI50 (HOP-62 NSCLC) [µM] | TGI (HOP-62 NSCLC) [µM] | GI50 (HT29 colon) [µM] | TGI (HT29 colon) [µM] | GI50 (M14 melanoma) [µM] | TGI (M14 melanoma) [µM] | GI50 (NCI-H522 lung) [µM] | TGI (NCI-H522 lung) [µM] | GI50 (RXF 393 renal) [µM] | TGI (RXF 393 renal) [µM] | GI50 (SNB-75 CNS) [µM] | TGI (SNB-75 CNS) [µM] | GI50 (UO-31 renal) [µM] | TGI (UO-31 renal) [µM]
1 | N#CN1CC[C@H](C(=O)Nc2cc3cc(C(N)=O)ccc3cn2)C1 | 0.527 | > 100 | 0.029 | > 100 | 0.104 | 15.3 | 0.172 | 3.5 | 0.144 | 1.16 | 0.0694 | 1.13 | 0.0695 | 0.247 | 0.0426 | 0.21 | 0.0649 | 0.512 | 0.107 | 0.518
2 | O=C(Nc1cc(Oc2cc(F)c(NC(=O)C3(C(=O)Nc4ccc(F)cc4)CC3)cc2F)ccn1)C1CC1 | 3.21 | > 36.6 | 2.39 | 7.59 | 2.27 | > 100 | 2.76 | 8.71 | 0.929 | 4.74 | 1.53 | 5.23 | 2.18 | 5.84 | 2.49 | 4.91 | 1.49 | 3.16 | 2.68 | 7.23
3 | CCCCCCCCCCCCCC(=O)CSCCNC(=O)CCNC(=O)[C@@H](O)C(C)(C)COP(=O)(O)OP(=O)(O)OCC1OC(n2cnc3c(N)ncnc32)C(O)C1OP(=O)(O)O (stereo not given in full) |  | 45.9 |  | 99.2 |  | 30.1 |  | 32.6 |  | 45.3 |  | 32 |  | 25.5 |  | 42.3 |  | 18.2 |  | 27.6
4 | CCOC(=O)C(CNc1ccc(O)cc1)NC(=O)c1ccccc1 (stereo not given) |  | > 100 |  | > 100 |  | > 100 |  | > 100 |  | > 100 |  | > 100 |  | > 100 |  | > 100 |  | > 100 |  | > 100
5 | CC(C)(C)OC(=O)c1cccnc1/C=N/O |  | > 100 |  | > 100 |  | > 100 |  | > 100 |  | > 100 |  | > 100 |  | > 100 |  | > 100 |  | > 100 |  | > 100
6 | C/C=C/COC(=O)CO[N+](=O)[O-] |  | > 100 |  | > 100 |  | > 100 |  | > 100 |  | > 100 |  | > 100 |  | > 100 |  | > 100 |  | > 100 |  | > 100
7 | C[C@]12CCNC(=O)C=C1CC[C@@H]1C2CC[C@@]2(C)C1CC[C@@H]2OC(=O)COc1ccc(N(CCCl)CCCl)cc1 (stereo not given in full) |  | 23 |  | 9.45 |  | 13.9 |  | 22.2 |  | 27.5 |  | 20.3 |  | 3.08 |  | 18 |  | 47.2 |  | 18.9
8 | C#CC1(O)CCC2[C@@H]3CCc4cc(Oc5nc(F)nc(-c6c7ccccc7cn6C)n5)ccc4C3CC[C@@]21C (stereo not given in full) |  | > 100 |  | > 67 |  | > 100 |  | > 100 |  | > 100 |  | > 100 |  | > 100 |  | > 100 |  | > 100 |  | > 100
9 | CC(=O)c1cc(C(=O)c2ccc3c(c2)Sc2ccccc2N3)c2c(C)cccn12 | 0.265 | 40.4 | 0.332 | > 100 | 0.27 | 10.5 | 0.25 | 36.9 | 0.272 | 1.8 | 0.198 | 5.5 | 0.0328 | 0.199 | 0.252 | 2.37 | 0.178 | 1.04 | 0.925 | 98.4
